Laboratory results reported in article PMC11040352, “CD38‐Specific Gallium‐68 Labeled Peptide Radiotracer Enables Pharmacodynamic Monitoring in Multiple Myeloma with PET” (Advanced Science, 2024).
Where two headings read alike, the source gives them in different places.

Assays:
[1] = Ex vivo biodistribution in mice with MM1S tumor xenografts; conditions: NSG, mouse; for tissue uptake at 1 h / tissue to tissue ratio at 1 h: 60 min p.i.; for tissue uptake at 1.5 h: 90 min p.i.; for tissue uptake at 2 h: 120 min p.i.; for tissue uptake at 5 min: 5 min p.i.; for tissue uptake at 0.5 h: 30 min p.i.
Description: (§1) Animal studies were performed under Johns Hopkins University Animal Care and Use Committee (ACUC‐approved protocol (Principal investigator: Sridhar Nimmagadda, Ph.D. and Protocol number M021M175). Male and female NSG mice (5‐6 weeks old) were used to establish xenografts by administering 3 million cells (50% Corning Matrigel) subcutaneously to form various tumor models within 3–4 weeks. Imaging or biodistribution studies (n = 3–5) were conducted on mice with tumor volumes of 100–200 mm^3. Disseminated tumor models were developed by injecting 4–5 million cells in saline intravenously for MOLP8 and MM1S‐Luc models (n = 4–5). Luciferase expressing MM1S cell line (MM1S‐Luc) was used to monitor cancer cell dissemination in the body. Tumor establishment was confirmed by injecting D‐Luciferin intraperitoneally (150 mg kg^−1) and imaged mice after 10 min in IVIS bioluminescence imaging system. Bone marrow tumors were ready for imaging after 25–30 d of implantation.
(§2) Mice with 100–200 mm^3 tumor volume were used for ex vivo biodistribution studies. For radiotracer pharmacokinetics studies, mice with MOLP8 tumor xenografts received ≈80 µCi (2.96 MBq) [^68Ga]Ga‐AJ206 and were sacrificed at pre‐determined time points (5, 30, 60 and 120 min). Similarly, for dosimetry study, mice with MM1S tumor xenografts received ≈80 µCi (2.96 MBq) of [^68Ga]Ga‐AJ206 and were sacrificed at pre‐determined time points (5, 30, 60, 90 and 120 min). All other mice were injected with ≈50µCi (1.85 MBq) [^68Ga]Ga‐AJ206 and were sacrificed at 60 min. The selected tissues were collected, weighed, counted, and their %ID g^−1 values calculated for biodistribution analysis. The tissues included blood, muscle, tumor, thymus, heart, lung, liver, pancreas, stomach, small intestine, large intestine, spleen, adrenals, kidney, bladder, femur, and brain.

[2] = Ex vivo biodistribution in mice with U266 tumor xenografts; conditions: both sexes, NSG, mouse, 60 min p.i., U266 xenograft mice; for tissue uptake at 1 h: 50 µCi; for tissue to tissue ratio at 1 h: 50 uCi, total radioactivity
Description: as §1, §2

[3] = both sexes, muscle, 80 µCi, MM1S xenograft mice, read-out: uptake in muscle
[4] = both sexes, pancreas, 80 µCi, total radioactivity, MM1S xenograft mice, read-out: uptake in pancreas
[5] = both sexes, small intestine (with contents), 80 µCi, MM1S xenograft mice, read-out: uptake in small intestine (with contents)
[6] = both sexes, spleen, 80 µCi, total radioactivity, MM1S xenograft mice, read-out: uptake in spleen
[7] = both sexes, stomach (with contents), 80 µCi, MM1S xenograft mice, read-out: uptake in stomach (with contents)
[8] = both sexes, thymus, 80 µCi, total radioactivity, MM1S xenograft mice, read-out: uptake in thymus
[9] = both sexes, tumor, 80 µCi, total radioactivity, MM1S xenograft mice, read-out: uptake in tumor
[10] = female, ovary, 80 µCi, MM1S xenograft mice, read-out: uptake in ovary

Work on `CC[C@H](C)[C@@H]1NC(=O)[C@@H]2CCCN2C(=O)[C@H](Cc2ccccc2)NC(=O)[C@H](CC(=O)O)NC(=O)[C@H](C)NC(=O)[C@@H]2CSCc3cc(cc(c3)CSC[C@H](NC(=O)[C@H](C)NC(=O)CCOCCOCCOCCNC(=O)CN3CCN(CC(=O)O)CCN(CC(=O)O)CC3)C(=O)N[C@@H](C(C)C)C(=O)N3CCC[C@H]3C(=O)N2)CSC[C@@H](C(N)=O)NC(=O)[C@H](Cc2ccc(O)cc2)NC(=O)[C@H](Cc2c[nH]c3ccccc23)NC1=O` [[^68Ga]Ga‐AJ206, metal not drawn] yielded a tissue uptake at 1 h [1, 3] of 0.13 ± 0.02 %ID/g, a tissue uptake at 1.5 h [1, 3] of 0.18 ± 0.04 %ID/g and a tissue uptake at 2 h ([1]; both sexes, muscle, 80 µCi, total radioactivity, MM1S xenograft mice, read-out: uptake in muscle) of 0.09 ± 0.02 %ID/g. For the same compound, the tissue uptake at 1 h ([1]; both sexes, pancreas, 2 mg/kg, MM1S xenograft mice with blocking dose (2 mg kg^−1 AJ206), read-out: uptake in pancreas) was 0.64 ± 0.39 %ID/g, the tissue uptake at 5 min [1, 4] was 3.55 ± 0.34 %ID/g and the tissue uptake at 0.5 h [1, 4] was 0.79 ± 0.14 %ID/g. The tissue uptake at 1 h [1, 4] was 0.19 ± 0.03 %ID/g, the tissue uptake at 1.5 h [1, 4] was 0.26 ± 0.06 %ID/g and the tissue uptake at 2 h [1, 4] was 0.17 ± 0.05 %ID/g. For the same compound, the tissue uptake at 5 min [1, 5] was 5 ± 0.7 %ID/g, the tissue uptake at 0.5 h [1, 5] was 0.95 ± 0.1 %ID/g and the tissue uptake at 1 h [1, 5] was 0.2 ± 0.1 %ID/g. For the same compound, the tissue uptake at 1.5 h [1, 5] was 0.41 ± 0.08 %ID/g, the tissue uptake at 2 h [1, 5] was 0.52 ± 0.21 %ID/g and the tissue uptake at 1 h ([1]; both sexes, small intestine, 2 mg/kg, MM1S xenograft mice with blocking dose (2 mg kg^−1 AJ206), read-out: uptake in small intestine) was 0.87 ± 0.5 %ID/g. For the same compound, the tissue uptake at 1 h ([1]; both sexes, spleen, 2 mg/kg, MM1S xenograft mice with blocking dose (2 mg kg^−1 AJ206), read-out: uptake in spleen) was 0.9 ± 0.45 %ID/g, the tissue uptake at 5 min [1, 6] was 6.41 ± 1.3 %ID/g and the tissue uptake at 0.5 h [1, 6] was 1.21 ± 0.15 %ID/g. The tissue uptake at 1 h [1, 6] was 0.41 ± 0.05 %ID/g, the tissue uptake at 1.5 h [1, 6] was 0.43 ± 0.07 %ID/g and the tissue uptake at 2 h [1, 6] was 0.28 ± 0.05 %ID/g. It also gave a tissue uptake at 5 min [1, 7] of 1.65 ± 0.19 %ID/g, a tissue uptake at 0.5 h [1, 7] of 0.54 ± 0.19 %ID/g and a tissue uptake at 1 h [1, 7] of 0.32 ± 0.21 %ID/g. The tissue uptake at 1.5 h [1, 7] was 0.82 ± 0.36 %ID/g, the tissue uptake at 2 h [1, 7] was 0.47 ± 0.3 %ID/g and the tissue uptake at 1 h ([1]; both sexes, stomach, 2 mg/kg, MM1S xenograft mice with blocking dose (2 mg kg^−1 AJ206), read-out: uptake in stomach) was 1.01 ± 0.56 %ID/g. It also gave a tissue uptake at 5 min [1, 8] of 16.5 ± 5.34 %ID/g, a tissue uptake at 0.5 h [1, 8] of 2.67 ± 0.83 %ID/g and a tissue uptake at 1 h [1, 8] of 0.69 ± 0.19 %ID/g. It also gave a tissue uptake at 1.5 h [1, 8] of 0.84 ± 0.18 %ID/g, a tissue uptake at 2 h [1, 8] of 0.33 ± 0.1 %ID/g and a tissue uptake at 1 h ([1]; both sexes, tumor, 2 mg/kg, MM1S xenograft mice with blocking dose (2 mg kg^−1 AJ206), read-out: uptake in tumor) of 1.37 ± 0.22 %ID/g. The tissue uptake at 5 min [1, 9] was 3.09 ± 0.16 %ID/g, the tissue uptake at 0.5 h [1, 9] was 4.15 ± 0.53 %ID/g and the tissue uptake at 1.5 h [1, 9] was 1.6 ± 0.46 %ID/g. It also gave a tissue uptake at 2 h [1, 9] of 1.3 ± 0.4 %ID/g, a tissue uptake at 1 h ([1]; both sexes, tumor, MM1S xenograft mice, read-out: uptake in tumor) of 2.48 ± 0.17 %ID/g and a tissue to tissue ratio at 1 h ([1]; both sexes, tumor/blood, total radioactivity, MM1S xenograft mice with blocking dose (2 mg kg^−1 AJ206), read-out: Tumor/Blood ratio) of 1.08 ± 0.4. It also gave a tissue to tissue ratio at 1 h ([1]; both sexes, tumor/blood, total radioactivity, MM1S xenograft mice, read-out: Tumor/Blood ratio) of 2.9 ± 0.65, a tissue to tissue ratio at 1 h ([1]; both sexes, tumor/muscle, total radioactivity, MM1S xenograft mice with blocking dose (2 mg kg^−1 AJ206), read-out: Tumor/Muscle ratio) of 8.31 ± 2.41 and a tissue to tissue ratio at 1 h ([1]; both sexes, tumor/muscle, total radioactivity, MM1S xenograft mice, read-out: Tumor/Muscle ratio) of 21.2 ± 3.4. For the same compound, the tissue uptake at 5 min [1, 10] was 4.11 ± 1.4 %ID/g, the tissue uptake at 0.5 h [1, 10] was 1.48 ± 0.32 %ID/g and the tissue uptake at 1 h [1, 10] was 0.2 ± 0.06 %ID/g. For the same compound, the tissue uptake at 1.5 h [1, 10] was 0.32 ± 0.14 %ID/g, the tissue uptake at 2 h [1, 10] was 0.45 ± 0.15 %ID/g and the tissue uptake at 1 h ([2]; blood, read-out: uptake in blood) was 0.32 ± 0.06 %ID/g. For the same compound, the tissue uptake at 1 h ([2]; femur, read-out: uptake in femur) was 0.13 ± 0.02 %ID/g, the tissue uptake at 1 h ([2]; heart, read-out: uptake in heart) was 0.15 ± 0.02 %ID/g and the tissue uptake at 1 h ([2]; kidney, read-out: uptake in kidney) was 21.5 ± 2.68 %ID/g. It also gave a tissue uptake at 1 h ([2]; liver, read-out: uptake in liver) of 0.78 ± 0.06 %ID/g, a tissue uptake at 1 h ([2]; lung, read-out: uptake in lung) of 0.42 ± 0.04 %ID/g and a tissue uptake at 1 h ([2]; muscle, read-out: uptake in muscle) of 0.08 ± 0.01 %ID/g. The tissue uptake at 1 h ([2]; small intestine, read-out: uptake in small intestine) was 0.16 ± 0.01 %ID/g, the tissue uptake at 1 h ([2]; spleen, read-out: uptake in spleen) was 0.24 ± 0.01 %ID/g and the tissue uptake at 1 h ([2]; stomach, read-out: uptake in stomach) was 0.39 ± 0.3 %ID/g. For the same compound, the tissue uptake at 1 h ([2]; tumor, read-out: uptake in tumor) was 0.25 ± 0.03 %ID/g, the tissue to tissue ratio at 1 h ([2]; tumor/blood, read-out: Tumor/Blood ratio) was 0.83 ± 0.09 and the tissue to tissue ratio at 1 h ([2]; tumor/muscle, read-out: Tumor/Muscle ratio) was 3.43 ± 0.28.
